Laboratory results reported in ChEMBL document CHEMBL2385049, “The effects and mechanism of flavonoid-rePON1 interactions. Structure-activity relationship study” (Bioorg Med Chem, 2013).
The source made the active and inactive calls. No cut-off for these calls is given here.

Assays:
[1] = biological target: Serum paraoxonase/arylesterase 1 (Homo sapiens) (UniProt P27169); test: Binding affinity to recombinant paraoxonase-1 (unknown origin) expressed in Escherichia coli
[2] = biological target: Serum paraoxonase/arylesterase 1 (Homo sapiens) (UniProt P27169); test: Binding affinity to recombinant paraoxonase-1 (unknown origin) expressed in Escherichia coli after 5 mins by Trp-fluorescence quenching method
[3] = biological target: Serum paraoxonase/arylesterase 1 (Homo sapiens) (UniProt P27169); test: Activation of recombinant paraoxonase-1 (unknown origin) expressed in Escherichia coli assessed as delaying of Cu2+-induced LDL oxidation time after 15 mins by UV ELISA

Chain of Serum paraoxonase/arylesterase 1 (Homo sapiens) (P27169 whole entry): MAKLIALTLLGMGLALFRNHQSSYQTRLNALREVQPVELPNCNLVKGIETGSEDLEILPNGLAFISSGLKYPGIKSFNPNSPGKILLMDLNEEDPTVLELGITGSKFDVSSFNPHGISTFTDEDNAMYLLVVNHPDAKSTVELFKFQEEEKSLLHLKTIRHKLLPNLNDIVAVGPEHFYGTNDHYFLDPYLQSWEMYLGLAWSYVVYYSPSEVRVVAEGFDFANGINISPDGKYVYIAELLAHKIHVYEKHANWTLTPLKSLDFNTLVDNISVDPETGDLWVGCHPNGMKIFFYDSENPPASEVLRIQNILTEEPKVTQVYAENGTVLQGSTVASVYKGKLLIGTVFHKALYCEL

O=c1c(O)c(-c2ccc(O)c(O)c2)oc2cc(O)cc(O)c12
Ka [1]: 1.28 ×10⁵ /M
KSV [2]: 1.25 ×10⁵ /M
Activity [3]: Active

Oc1cc(O)c2c(c1)OC(c1ccc(O)c(O)c1)C(O)C2 (stereo not given)
Activity [3]: inactive

O=c1c(-c2ccc(O)cc2)coc2cc(O)cc(O)c12
Ka [1]: 0.86 ×10⁵ /M
KSV [2]: 0.64 ×10⁵ /M

O=C1C[C@@H](c2ccc(O)cc2)Oc2cc(O)cc(O)c21
Ka [1]: 0.68 ×10⁵ /M
KSV [2]: 0.35 ×10⁵ /M

COc1ccc([C@@H]2CC(=O)c3c(O)cc(O)cc3O2)cc1O
Ka [1]: 0.66 ×10⁵ /M
KSV [2]: 0.6 ×10⁵ /M

O=c1cc(-c2ccc(O)c(O)c2)oc2cc(O)cc(O)c12
Ka [1]: 1.33 ×10⁵ /M
KSV [2]: 1.34 ×10⁵ /M

O=c1c(-c2ccc(O)cc2)coc2cc(O)ccc12
Ka [1]: 1.13 ×10⁵ /M
KSV [2]: 0.58 ×10⁵ /M

O=c1cc(-c2ccc(O)cc2)oc2cc(O)cc(O)c12
Ka [1]: 1.13 ×10⁵ /M
KSV [2]: 1.15 ×10⁵ /M

O=c1cc(-c2ccc(O)cc2O)oc2ccccc12
Ka [1]: 0.75 ×10⁵ /M
KSV [2]: 0.54 ×10⁵ /M

CC1(C)C=Cc2c(ccc3c2OC[C@@H](c2ccc(O)cc2O)C3)O1
Ka [1]: 2.4 ×10⁵ /M
KSV [2]: 1.93 ×10⁵ /M
TIME [3]: 1.33 h

O=c1c(O)c(-c2ccc(O)cc2)oc2cc(O)cc(O)c12
Ka [1]: 1.43 ×10⁵ /M
KSV [2]: 1.22 ×10⁵ /M

O=c1cc(-c2ccc(O)c(O)c2)oc2cc(O)ccc12
Ka [1]: 1.07 ×10⁵ /M
KSV [2]: 0.87 ×10⁵ /M
